Drawing on ChEMBL document CHEMBL1152459, “Drugs designed to inhibit human p38 mitogen-activated protein kinase activation treat Toxoplasma gondii and Encephalitozoon cuniculi infection” (Antimicrob Agents Chemother, 2007), this text covers Activity and IC50 for four compounds.

Data set [1] has as its system Toxoplasma gondii. Briefly: Antiprotozoal activity against 5 MOI SB-203580-resistant Toxoplasma gondii SBRMe49-2 tachyzoites infected in confluent HFF assessed as inhibition of [3H]uracil incorporation into tachyzoites at 0.25 to 10 uM treated 4 hrs after infection measured after overnight incubation post uracil addition by liquid scintillation counting. It counts as functional, organism-based.

Data set [2] relates to Mus musculus. In words: Toxicity in CBA/J mouse at 30 mg/kg, ip. The data set is classed as organism-based. Further details: dose 30 mg/kg, route intraperitoneal. The conditions noted are these: in vivo.
Data set [3] relates to Toxoplasma gondii. In words: Antiprotozoal activity against 1000 Toxoplasma gondii RH tachyzoites infected in CBA/J mouse assessed as prolongation of survival of mous at 7.5 mg/kg, ip administered 24 hrs postinfection for 7 consecutive days. It counts as functional, organism-based. Further details: dose 7.5 mg/kg.
Data set [4] has as its system Toxoplasma gondii. Briefly: Antiprotozoal activity against 100 Toxoplasma gondii RH tachyzoites infected in CBA/J mouse assessed as prolongation of survival of mous at 30 mg/kg, ip twice daily for 7 consecutive days administered 2 hrs postinfection. The data set is classed as functional, organism-based. The arrangement: dose 30 mg/kg.
Data set [5] has as its system Encephalitozoon cuniculi. Briefly: Antiprotozoal activity against Encephalitozoon cuniculi infected in CD8 knockout […] mouse mouse survival at 6 mg/kg, ip administered 2 days after infection for 15 consecutive days. The data set is classed as functional, organism-based. Further details: dose 6 mg/kg.
Data set [6] has as its system Toxoplasma gondii. Briefly: Antiprotozoal activity against 100 Toxoplasma gondii RH tachyzoites infected in CBA/J mouse survival at 60 mg/kg, ip administered 2 hrs postinfection once daily for 7 consecutive days in presence of sulfadiazine 75 mg/liter. The data set is classed as functional. The conditions noted are these: route intraperitoneal.
Data set [7] has as its system Mus musculus. In words: Toxicity in CBA/J mouse at 17 mg/kg, po. The data set is classed as organism-based. Further details: dose 17 mg/kg, route oral. The conditions noted are these: in vivo.
For data set [8], the system named is Toxoplasma gondii. Briefly: Antiprotozoal activity against 1000 Toxoplasma gondii RH tachyzoites infected in CBA/J mouse assessed as prolongation of survival of mous at 60 mg/kg, ip administered 24 hrs postinfection for 7 consecutive days. The data set is classed as functional, organism-based. The arrangement: dose 60 mg/kg.
The subject of data set [9] is Encephalitozoon cuniculi. In words: Antiprotozoal activity against Encephalitozoon cuniculi infected in CD8 knockout […] mouse assessed as prolongation of survival of mous-related absence of ascites fluid and sluggishness at 36 mg/kg, ip administered 2 days after infection for 15 consecutive days. It counts as functional, organism-based. Further details: dose 36 mg/kg.

Data set [10] deals with Toxoplasma gondii. In words: microbe, parasite or virus in culture. The conditions noted are these: RH.
Description: Antiprotozoal activity against 1 MOI Toxoplasma gondii RH tachyzoites infected in confluent HFF assessed as inhibition of [3H]uracil incorporation into tachyzoites treated 4 hrs after infection measured after overnight incubation post uracil addition by liquid scintillation counting
Data set [11] concerns Toxoplasma gondii. In words: Antiprotozoal activity against 100 Toxoplasma gondii RH tachyzoites infected in CBA/J mouse survival at 60 mg/kg, ip administered 2 hrs postinfection once daily for 7 consecutive days in presence of pyrimethamine 5 mg/kg, po. It counts as functional.
In data set [12] the test system is Mus musculus. In words: Toxicity in CBA/J mouse assessed as occasional and transient fur ruffling at 60 mg/kg, ip. The data set is classed as organism-based. Further details: dose 60 mg/kg, route intraperitoneal. The following applies: in vivo.
Data set [13] deals with Toxoplasma gondii. Briefly: microbe, parasite or virus in culture. The following applies: ME49.
Description: Antiprotozoal activity against 5 MOI Toxoplasma gondii Me49 tachyzoites infected in confluent HFF assessed as inhibition of [3H]uracil incorporation into tachyzoites treated 4 hrs after infection measured after overnight incubation post uracil addition by liquid scintillation counting
Data set [14] relates to Toxoplasma gondii. In words: Antiprotozoal activity against 100 Toxoplasma gondii RH tachyzoites infected in CBA/J mouse assessed as prolongation of survival of mous at 30 mg/kg, ip administered 24 hrs postinfection twice daily for 7 consecutive days. It counts as functional, organism-based. The arrangement: dose 30 mg/kg.
Data set [15] relates to Toxoplasma gondii. In words: Antiprotozoal activity against 2000Toxoplasma gondii RH tachyzoites infected 30 days after initial 20 parasite infection in CBA/J mouse assessed as mouse survival time at 60 mg/kg, ip administered 2 hrs postinfection for 7 consecutive days. The following applies: route intraperitoneal.
The test system of data set [16] is Toxoplasma gondii. In words: Antiprotozoal activity against 20 Toxoplasma gondii RH tachyzoites infected in CBA/J mouse assessed as prolongation of survival of mous at 30 mg/kg, ip administered 2 hrs postinfection for 7 consecutive days. It counts as functional. The following applies: route intraperitoneal.
Data set [17] concerns Toxoplasma gondii. Briefly: Antiprotozoal activity against 100 Toxoplasma gondii RH tachyzoites infected in CBA/J mouse survival at 60 mg/kg, ip administered 2 hrs postinfection once daily for 7 consecutive days. It counts as functional. The conditions noted are these: route intraperitoneal.
Data set [18] has as its system Toxoplasma gondii. In words: Antiprotozoal activity against 20 Toxoplasma gondii RH tachyzoites infected in CBA/J mouse assessed as prolongation of survival of mous at 60 mg/kg, ip administered 2 hrs postinfection for 7 consecutive days. The data set is classed as functional. The conditions noted are these: route intraperitoneal.
For data set [19], the system named is Toxoplasma gondii. In words: Antiprotozoal activity against 2000Toxoplasma gondii RH tachyzoites infected 30 days after initial 100 parasite infection in CBA/J mouse assessed as mouse survival time at 60 mg/kg, ip administered 2 hrs postinfection for 7 consecutive days. The conditions noted are these: route intraperitoneal.
For data set [20], the system named is Toxoplasma gondii. In words: Antiprotozoal activity against 2000Toxoplasma gondii RH tachyzoites infected 30 days after initial 100 parasite infection in CBA/J mouse assessed as mouse survival time at 5 mg/kg, ip administered 2 hrs postinfection for 7 consecutive days. The conditions noted are these: route intraperitoneal.
The subject of data set [21] is Toxoplasma gondii. In words: Antiprotozoal activity against 20 Toxoplasma gondii RH tachyzoites infected in CBA/J mouse assessed as prolongation of survival of mous at 17 mg/kg, po administered 2 hrs postinfection for 7 consecutive days. It counts as functional, organism-based. The arrangement: dose 17 mg/kg.
Data set [22] concerns the target T1, Mitogen-activated protein kinase 1 (Toxoplasma gondii, UniProt Q5SC61).
T1 sequence (Q5SC61 whole entry): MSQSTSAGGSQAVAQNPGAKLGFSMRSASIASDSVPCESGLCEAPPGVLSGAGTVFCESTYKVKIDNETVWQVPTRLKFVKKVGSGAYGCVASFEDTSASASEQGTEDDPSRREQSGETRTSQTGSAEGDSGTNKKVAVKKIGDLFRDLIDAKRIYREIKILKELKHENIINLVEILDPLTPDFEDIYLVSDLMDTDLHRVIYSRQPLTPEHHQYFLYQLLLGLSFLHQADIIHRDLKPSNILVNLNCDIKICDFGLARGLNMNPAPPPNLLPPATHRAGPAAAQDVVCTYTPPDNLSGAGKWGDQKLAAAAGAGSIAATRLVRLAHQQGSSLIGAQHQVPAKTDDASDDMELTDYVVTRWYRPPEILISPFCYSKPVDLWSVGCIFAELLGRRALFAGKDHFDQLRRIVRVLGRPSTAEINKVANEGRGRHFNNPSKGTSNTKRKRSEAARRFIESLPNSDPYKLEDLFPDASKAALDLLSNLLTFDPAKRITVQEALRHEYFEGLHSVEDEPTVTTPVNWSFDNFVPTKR
In words: Inhibition of Toxoplasma gondii recombinant MAPK1 expressed in Escherichia coli. It counts as cell-free.

Data set [23] has as its system Toxoplasma gondii. In words: Antiprotozoal activity against 2000Toxoplasma gondii RH tachyzoites infected 30 days after initial 20 parasite infection in CBA/J mouse assessed as mouse survival time at 30 mg/kg, ip administered 2 hrs postinfection for 7 consecutive days. The following applies: route intraperitoneal.
Data set [24] has as its system Toxoplasma gondii. Briefly: Antiprotozoal activity against 1000 Toxoplasma gondii RH tachyzoites infected in CBA/J mouse assessed as prolongation of survival of mous at 3.8 mg/kg, ip administered 24 hrs postinfection for 7 consecutive days. It counts as functional, organism-based. Further details: dose 3.8 mg/kg.
The subject of data set [25] is Toxoplasma gondii. Briefly: Antiprotozoal activity against 1000 Toxoplasma gondii RH tachyzoites infected in CBA/J mouse assessed as prolongation of survival of mous at 15 mg/kg, ip administered 24 hrs postinfection for 7 consecutive days. The data set is classed as functional, organism-based. Further details: dose 15 mg/kg.
For data set [26], the system named is Toxoplasma gondii. In words: Antiprotozoal activity against 1000 Toxoplasma gondii RH tachyzoites infected in CBA/J mouse assessed as prolongation of survival of mous at 30 mg/kg, ip administered 24 hrs postinfection for 7 consecutive days. It counts as functional, organism-based. The arrangement: dose 30 mg/kg.
For data set [27], the target named is Mitogen-activated protein kinase 14 (Homo sapiens, UniProt Q16539).
Mitogen-activated protein kinase 14, sequence (Q16539 whole entry): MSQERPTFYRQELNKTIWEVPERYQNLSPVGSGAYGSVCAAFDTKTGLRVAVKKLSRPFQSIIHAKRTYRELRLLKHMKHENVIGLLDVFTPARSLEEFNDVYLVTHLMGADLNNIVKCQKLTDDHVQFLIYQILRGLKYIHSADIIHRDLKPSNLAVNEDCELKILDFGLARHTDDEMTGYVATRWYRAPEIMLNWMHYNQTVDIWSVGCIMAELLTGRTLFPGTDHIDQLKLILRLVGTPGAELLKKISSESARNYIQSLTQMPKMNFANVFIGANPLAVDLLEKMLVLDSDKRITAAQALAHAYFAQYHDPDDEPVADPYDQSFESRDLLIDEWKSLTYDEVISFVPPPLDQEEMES
Description: Inhibition of human recombinant p38alpha assessed as [gamma33P]ATP utilization by microplate scintillation counting
The test system of data set [28] is Mus musculus. Briefly: Toxicity in CBA/J mouse at 50 mg/kg, po. The data set is classed as organism-based. The arrangement: dose 50 mg/kg, route oral. The conditions noted are these: in vivo.
Data set [29] deals with Toxoplasma gondii. In words: Antiprotozoal activity against 100 Toxoplasma gondii RH tachyzoites infected in CBA/J mouse assessed as prolongation of survival of mous at 60 mg/kg, ip administered 24 hrs postinfection once daily for 7 consecutive days. It counts as functional, organism-based. Further details: dose 60 mg/kg.
The subject of data set [30] is Toxoplasma gondii. Briefly: Antiprotozoal activity against 20 Toxoplasma gondii RH tachyzoites infected in CBA/J mouse assessed as prolongation of survival of mous at 50 mg/kg, po administered 2 hrs postinfection for 7 consecutive days. The data set is classed as functional, organism-based. The arrangement: dose 50 mg/kg.
Data set [31] has as its system Toxoplasma gondii. Briefly: Antiprotozoal activity against 5 MOI wild type Toxoplasma gondii Me49 tachyzoites infected in confluent HFF assessed as inhibition of [3H]uracil incorporation into tachyzoites at 0.25 to 10 uM treated 4 hrs after infection measured after overnight incubation post uracil addition by liquid scintillation counting. It counts as functional, organism-based.

The source made the active and inactive calls. The rule behind the calls is not given here.

In the case of `Oc1ccc(-c2nc(-c3ccc(F)cc3)c(-c3ccncc3)[nH]2)cc1`, in [1], the result was inactive.

As a reminder, the IC50 is the point on the concentration scale where inhibition reaches its midpoint. For the compound `OCCC#Cc1nc(-c2ccc(F)cc2)c(-c2ccncc2)n1CCCc1ccccc1` [RWJ-67657], the Activity entry in [2] is “Non-toxic”; in data set [6] it was 80%; in [7] it was “Non-toxic”; in data set [11], 80%; in data set [12] it was “Toxic”; in data set [15] it was 30 days. The Activity in data set [16] turned out to be 100%; in [17], 40%; in data set [18], 100%; in data set [19], 30 days; in data set [20], 30 days; in [23], 30 days. Further, the Activity result in data set [28] is “Non-toxic”. Besides, the outcome in data set [3], in data set [4], in [5], in [1], in data set [14] and in data set [21] was inactive. Besides, the result in data set [24], in data set [25], in data set [26], in data set [29] and in data set [30] was inactive. Also, the result in data set [8] and in data set [9] was Active. In addition, the IC50 in data set [10] was determined as 5000 nM; in [13] it was 800 nM; in data set [22], 200 nM; in data set [27], 1000 nM.

With `CCc1nc(-c2ccc(OC)cc2)[nH]c1-c1ccncc1` [SB-202474], the outcome in data set [1] and in data set [31] was inactive. The Activity in data set [15], in data set [19], in [20] and in [23] was 30 days each time.

Take `C[S+]([O-])c1ccc(-c2nc(-c3ccc(F)cc3)c(-c3ccncc3)[nH]2)cc1` (stereo not drawn) [SB-203580]: the 50% inhibitory concentration (IC50) in data set [10] was 8500 nM; in data set [13], 2500 nM. Also, the Activity in data set [15], in data set [19], in data set [20] and in data set [23] was 30 days in each case.
